Data published in publication PMC8308740 (Pharmaceuticals, 2021).
Values joined by “and” are separate entries in the source; they are usually repeats but may differ in a detail not shown here. Equal values may be shown once. “Also recorded” adds a separate entry of the source. Read-outs that look alike come from different tables or passages of the source.

How the values were obtained:
TbPTR1 [1] = target: T1, TbPTR1 (Trypanosoma brucei brucei, UniProt O76290); settings: read-out: TbPTR1 IC50; cited from earlier work
T1 construct: His tag; made in house; host or cells: E. coli
T1 sequence (O76290 1-268): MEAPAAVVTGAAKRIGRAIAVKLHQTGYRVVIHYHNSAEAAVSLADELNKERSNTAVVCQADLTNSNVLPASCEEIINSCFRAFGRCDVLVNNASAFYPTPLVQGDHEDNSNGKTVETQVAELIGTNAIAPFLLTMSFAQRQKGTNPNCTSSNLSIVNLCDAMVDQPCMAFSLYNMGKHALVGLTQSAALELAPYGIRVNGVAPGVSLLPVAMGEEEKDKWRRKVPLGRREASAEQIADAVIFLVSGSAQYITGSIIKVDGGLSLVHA

hDHFR = target: T2, hDHFR (Homo sapiens, UniProt P00374); assay: hDHFR spectrophotometric enzyme inhibition assay; type: biochemical; settings: TES buffer pH 7.4, 50 µM H2FA; spread from CI95 of fitting
T2 construct: His tag; made in house; host or cells: E. coli
T2 sequence (P00374 1-187): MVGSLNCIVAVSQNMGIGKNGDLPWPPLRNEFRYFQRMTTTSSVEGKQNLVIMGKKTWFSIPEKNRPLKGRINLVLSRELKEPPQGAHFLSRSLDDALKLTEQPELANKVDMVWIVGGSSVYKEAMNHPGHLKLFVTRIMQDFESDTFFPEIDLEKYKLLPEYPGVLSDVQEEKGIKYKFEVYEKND
Description: (§1) Recombinant TbPTR1, TbDHFR-TS, and hDHFR were expressed in E. coli as histidine-tagged proteins and purified following established protocols. Purified recombinant enzymes were stored in stock solutions having concentrations of 0.93 mg/mL, 0.53 mg/mL, and 0.88 mg/mL, for TbPTR1, TbDHFR-TS, and hDHFR, respectively. A direct spectrophotometric kinetic test was used to evaluate the inhibitory activity of the compound library. A Jasco-V730 double beam spectrophotometer (Jasco Europe) was employed to perform the assays. Fixed final concentrations of purified TbPTR1, TbDHFR-TS, and hDHFR (15 nM, 55 nM, and 15 nM respectively) were incubated in semi-micro plastic cuvettes (Brand, Tech Scientific, Essex, UK) with 400 µL of sodium citrate buffer at pH = 3.7 and TES buffer (100 mM TES, 50 mM MgCl2, 13 mM CH2O, 2 mM EDTA, 150 mM 2-mercaptoethanol, pH 7.4), plus 25 µM 7,8-dihydro-L-biopterin (H2B, Sigma Aldrich) for TbPTR1 and 50 µM of 7,8-dihydrofolic acid (H2FA, Sigma Aldrich) for TbDHFR-TS and hDHFR enzymes.
(§2) Residual NADP(H) absorption (λmax = 340 nm), converted to NADP^+ as cofactor, was monitored for 180 s of the ongoing reaction and its Δ(OD)/min was registered for v(0) slope at 22.4 °C. Each inhibition assay was performed in triplicate, and five to six different concentrations of compounds were tested to assess their relative IC50.
(§3) The equation used to interpolate points was y = y(min) + (y(max) − y(min))/(1 + (IC50/x)^^HillSlope), where HillSlope was constrained at −1 (standard Michaelis–Menten behaviour for competitive inhibitors), from which IC50 were extrapolated. Standard deviations—as reported in Table 1—were obtained from 95% confidence interval (CI95) of fitting.

TbPTR1 [2] = target: T1, TbPTR1; assay: biochemical; type: biochemical; settings: for Selectivity IC50 TbDHFR-TS /IC50 TbPTR1: ratio, for PYR and CYC calculated assuming a competitive inhibition mechanism; for IC50: recombinant enzyme, citrate buffer pH 3.7, 25 µM H2B, spread from CI95 of fitting; for fold improvement of inhibitory activity against TbPTR1 relative to CYC: versus CYC IC50
Description: as §1, §2, §3

TbDHFR-TS = target: T3, TbDHFR-TS (Trypanosoma brucei brucei, UniProt Q27783); assay: biochemical; type: biochemical; settings: for Selectivity IC50 hDHFR /IC50 TbDHFR-TS: ratio, PYR and CYC from Ki values
T3 construct: His tag; made in house; host or cells: E. coli
Description: as §1, §2, §3

[3] = Stability of compound 6 in solution at different pH (HPLC-ELSD); type: physicochemical; settings: pH 10.5, 7 and 3.7, room temperature, overnight / 30 h
Description: Although it was unusual, we suspected the potential hydrolysis of the acetamido group to generate an amine and acetic acid. Therefore, we tested the compound stability at pH 10.5, 7, and 3.7 overnight at room temperature.
We have studied the stability of the CYC-like compound 6 to test the hydrolysis of the N-acetyl group in different pH buffers and to screen its putative prodrug action. We prepared three 10 µM solutions from a 100 µM DMSO stock of compound 6 in double deionized water, at pH 10.5 with NaOH, and in citrate buffer, pH 3.7, used for kinetic assays with TbPTR1. We have monitored the purity of these solutions with HPLC–ELSD just after compound dilutions. A volume of 7 µL of each solution was immediately injected in an HPLC Atlantis dC18, 150 × 3.9 mm, 3 µm ID column (Waters Corp, Milford, MA, US) coupled to an ELSD detector (Agilent 1260 Infinity II system). Compounds were eluted with 0.1% formic acid in water (A) and pure acetonitrile (B), gradient 10% to 50% B for 10 min, at 0.5 mL min^−1, room temperature. Detector parameters were set as follows: Neb = 30 °C, Evap = 40 °C, N2 flow = 1.6 SLM, smoothing = 3.0 s. […] Compound stability also was evaluated with 1H-NMR, obtaining the same results. We thus concluded that compound 6 is not susceptible to pH mediated hydrolysis, and acts as a TbPTR1 inhibitor as N-acetylated compounds.

[4] = target: the molecule itself; assay: crystal structure; TbPTR1 crystals by hanging drop vapour diffusion at room temperature, 2-2.5 M sodium acetate, 0.1 M sodium citrate pH 5; soaked with 3 mM PYR; space group P21 with a functional tetramer in the asymmetric unit; NADP(H) bound
[5] = TES buffer pH 7.4, 50 µM H2FA, spread from CI95 of fitting, read-out: TbDHFR-TS (IC50 µM)

T3 sequence (Q27783 whole entry): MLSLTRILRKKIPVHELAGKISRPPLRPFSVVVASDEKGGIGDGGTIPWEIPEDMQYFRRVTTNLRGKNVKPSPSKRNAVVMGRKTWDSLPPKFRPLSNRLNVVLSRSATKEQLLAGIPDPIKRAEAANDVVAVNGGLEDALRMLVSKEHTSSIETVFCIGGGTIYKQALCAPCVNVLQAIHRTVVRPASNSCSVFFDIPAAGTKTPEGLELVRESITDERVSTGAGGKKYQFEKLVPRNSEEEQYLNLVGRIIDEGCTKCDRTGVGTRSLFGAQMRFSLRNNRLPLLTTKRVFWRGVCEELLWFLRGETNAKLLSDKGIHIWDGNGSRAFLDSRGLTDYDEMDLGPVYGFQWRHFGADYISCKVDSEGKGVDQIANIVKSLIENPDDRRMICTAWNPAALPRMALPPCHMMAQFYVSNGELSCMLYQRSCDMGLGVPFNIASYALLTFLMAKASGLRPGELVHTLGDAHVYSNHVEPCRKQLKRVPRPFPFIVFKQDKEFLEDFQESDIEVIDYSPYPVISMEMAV

CC1(C)N=C(N)N=C(N)N1c1ccc(Cl)cc1 [CYC, cycloguanil]
IC50 (TbPTR1 [1]): 31.6 µM

CC1N=C(N)N=C(N)N1c1ccc(Cl)cc1 (stereo not shown) [Compound 1]
IC50 (hDHFR): 337 µM
Selectivity IC50 TbDHFR-TS /IC50 TbPTR1 (TbPTR1 [2]): 16.9
IC50 (TbPTR1 [2]): 6.02 µM
IC50 (TbDHFR-TS): 103 µM
Selectivity IC50 hDHFR /IC50 TbDHFR-TS (TbDHFR-TS): 3.27

CC1(C)N=C(N)N=C(N)N1c1ccc(Cl)c(Cl)c1 [Compound 1a]
IC50 (TbPTR1 [1]): 0.692 µM

CCCC1N=C(N)N=C(N)N1c1ccc(Cl)cc1 (stereo not shown) [Compound 2]
IC50 (hDHFR): 66.7 µM
Selectivity IC50 TbDHFR-TS /IC50 TbPTR1 (TbPTR1 [2]): 0.26
IC50 (TbPTR1 [2]): 27.5 µM
IC50 (TbDHFR-TS): 7.26 µM
Selectivity IC50 hDHFR /IC50 TbDHFR-TS (TbDHFR-TS): 9.2 and 9.19

NC1=NC(c2ccc([N+](=O)[O-])cc2)N(c2ccc(Cl)c(Cl)c2)C(N)=N1 (stereo not shown) [Compound 2a]
IC50 (TbPTR1 [1]): 0.186 µM

NC1=NC2(CCCCC2)N(c2ccc(Cl)cc2)C(N)=N1 [Compound 3]
IC50 (hDHFR): 65.6 µM
Selectivity IC50 TbDHFR-TS /IC50 TbPTR1 (TbPTR1 [2]): 14.4
IC50 (TbPTR1 [2]): 1.22 µM
fold improvement of inhibitory activity against TbPTR1 relative to CYC (TbPTR1 [2]): 30 fold
IC50 (TbDHFR-TS; [5]): 17.6 µM
Selectivity IC50 hDHFR /IC50 TbDHFR-TS (TbDHFR-TS): 3.73

CC1(C)N=C(N)N=C(N)N1c1ccc(O)cc1 [Compound 4]
IC50 (hDHFR): 284 µM
Selectivity IC50 TbDHFR-TS /IC50 TbPTR1 (TbPTR1 [2]): 21.7
IC50 (TbPTR1 [2]): 4.1 µM
IC50 (TbDHFR-TS; [5]): 89 µM
Selectivity IC50 hDHFR /IC50 TbDHFR-TS (TbDHFR-TS): 3.19

COc1ccc(N2C(N)=NC(N)=NC2(C)C)cc1 [Compound 5, 1-(4-methoxyphenyl)-6,6-dimethyl-1,6-dihydro-1,3,5-triazine-2,4-diamine]
IC50 (hDHFR): 413 µM
Selectivity IC50 TbDHFR-TS /IC50 TbPTR1 (TbPTR1 [2]): 49.6
IC50 (TbPTR1 [2]): 0.67 µM
fold improvement of inhibitory activity against TbPTR1 relative to CYC (TbPTR1 [2]): 46 fold
IC50 (TbDHFR-TS; [5]): 33.2 µM
Selectivity IC50 hDHFR /IC50 TbDHFR-TS (TbDHFR-TS): 12.4

COc1ccc(N2C(N)=NC(NC(C)=O)=NC2(C)C)cc1 [Compound 6, N-[6-amino-5-(4-methoxyphenyl)-4,4-dimethyl-4,5-dihydrotriazin-2-yl]acetamide]
IC50 (hDHFR): 62.5 µM
compound stability (hydrolysis of N-acetyl group), HPLC analysis [3]: fully stable; also recorded: no changes in chromatograms were detected
Selectivity IC50 TbDHFR-TS /IC50 TbPTR1 (TbPTR1 [2]): 22.8
IC50 (TbPTR1 [2]): 0.83 µM
IC50 (TbDHFR-TS; [5]): 18.9 µM
Selectivity IC50 hDHFR /IC50 TbDHFR-TS (TbDHFR-TS): 3.31

B1: Trypanosoma brucei pteridine reductase 1 (enzyme)
chain: MEAPAAVVTGAAKRIGRAIAVKLHQTGYRVVIHYHNSAEAAVSLADELNKERSNTAVVCQADLTNSNVLPASCEEIINSCFRAFGRCDVLVNNASAFYPTPLVQGDHEDNSNGKTVETQVAELIGTNAIAPFLLTMSFAQRQKGTNPNCTSSNLSIVNLCDAMVDQPCMAFSLYNMGKHALVGLTQSAALELAPYGIRVNGVAPGVSLLPVAMGEEEKDKWRRKVPLGRREASAEQIADAVIFLVSGSAQYITGSIIKVDGGLSLVHA
notes: pteridine reductase 1 (PTR1) of Trypanosoma brucei, recombinant; also called TbPTR1; PTR1; source: E. coli, histidine-tagged, purified following established protocols
stoichiometry N [4]: 4
